What was measured:
HCoV-229E = assay: microbe, parasite or virus in culture; assay type: cell-based, Human coronavirus 229E
SARS-CoV-2 M^pro [1] = molecular target: T1, SARS-CoV-2 M^pro (Severe acute respiratory syndrome coronavirus 2, UniProt P0DTD1); settings: ref Zhu and Xie, 2020; cited from earlier work
SARS-CoV-2 M^pro [2] = molecular target: T1, SARS-CoV-2 M^pro; assay: Inhibition assay of the SARS-CoV-2 M^pro activity; assay type: biochemical
[3] = after the intake of 150 mg in 1 h; ref de Whalley et al., 1990; Olthof et al., 2000; cited from earlier work

| SMILES | Concentration at which inhibition of HCoV-229E replication starts (HCoV-229E) [µM] | Inhibition of the SARS-CoV-2 M^pro activity (SARS-CoV-2 M^pro [1]) | Inhibitive effect on the M^pro activity at 100 μM (SARS-CoV-2 M^pro [2]) | further results |
| --- | --- | --- | --- | --- |
| Oc1cc(O)c2c(c1)O[C@H](c1ccc(O)c(O)c1)[C@H](O)C2 [(−)-epicatechin] | 20 | could not | did not inhibit | Inhibitory effect on the M^pro activity (SARS-CoV-2 M^pro [2]; range of concentrations from 0 to 200 μM): did not show an inhibitory effect |
| O=C(O[C@@H]1Cc2c(O)cc(O)cc2O[C@@H]1c1cc(O)c(O)c(O)c1)c1cc(O)c(O)c(O)c1 [EGCG, epigallocatechin gallate, reference compound] | 2.5 | effectively inhibited |  |  |
| O=c1c(O[C@@H]2O[C@H](CO)[C@@H](O)[C@H](O)[C@H]2O)c(-c2ccc(O)c(O)c2)oc2cc(O)cc(O)c12 [Isoquercitrin, quercetin-3-O-glycoside] | 2.5 |  |  |  |
| O=c1c(O)c(-c2ccc(O)c(O)c2)oc2cc(O)cc(O)c12 [Quercetin, quercetin] | 5.0 |  |  | Quercetin concentration in plasma [3]: 5.0 ± 1.0 µM; Effect on HCoV-229E replication at 2.5 μM (HCoV-229E; Huh-7 cells, 2.5 μM): slightly reduce; Inhibition of HCoV-229E replication at concentration higher than 10 μM (HCoV-229E; Huh-7 cells, higher than 10 μM): strongly inhibit; EC50 (HCoV-229E; Human coronavirus 229E, Huh-7, 24 h, read-out: EC50, inhibition of HCoV-229E replication): 4.88 µM |
| C[C@@H]1O[C@@H](OC[C@H]2O[C@@H](Oc3c(-c4ccc(O)c(O)c4)oc4cc(O)cc(O)c4c3=O)[C@H](O)[C@@H](O)[C@@H]2O)[C@H](O)[C@H](O)[C@H]1O [Rutin, rutin] |  |  | most effectiveness |  |
